According to BigSolDB 2.1:

CC(C)[C@@H](C)[C@@H](O)[C@H](O)[C@@H](C)[C@H]1CC[C@H]2[C@@H]3COC(=O)[C@H]4C[C@H](O)[C@H](O)C[C@]4(C)[C@H]3CC[C@]12C
solubility (mole fraction)
Conditions	283.15 K	288.15 K	293.15 K	298.15 K	303.15 K	308.15 K	313.15 K	318.15 K	323.15 K
in acetone	0.00144	0.00176	0.00207	0.0024	0.00273	0.00303	0.00334	0.00365	0.00405
in acetonitrile	0.000162	0.000206	0.000258	0.000322	0.000399	0.000491	0.0006	0.000728	0.000879
in ethanol	0.00219	0.00241	0.00296	0.0032	0.00356	0.00409	0.00476	0.00551	0.00634
in isopropanol	0.00136	0.00169	0.00209	0.00256	0.00312	0.00396	0.00464	0.00564	0.00667
